Data as given in PubChem BioAssay (NCI).
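Exposure lasted 48 hours, with cells grown in 96-well plates and compounds tested at five concentrations. TGI marks complete inhibition of growth.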

What was measured:
Experiment in all cases: DTP human tumour cell line panel, 48 h
DU-145 prostate = test system: DU-145 prostate
SF-295 CNS = test system: SF-295 CNS
SW-620 colon = test system: SW-620 colon
OVCAR-8 ovarian = test system: OVCAR-8 ovarian
SK-OV-3 ovarian = test system: SK-OV-3 ovarian
ACHN renal = test system: ACHN renal
HS 578T breast = test system: HS 578T breast
M14 melanoma = test system: M14 melanoma
T-47D breast = test system: T-47D breast
MDA-N = test system: MDA-N
UO-31 renal = test system: UO-31 renal
MDA-MB-231 breast = test system: MDA-MB-231 breast
A549 NSCLC = test system: A549 NSCLC
RPMI-8226 leukemia = test system: RPMI-8226 leukemia
COLO 205 colon = test system: COLO 205 colon
HOP-92 NSCLC = test system: HOP-92 NSCLC
NCI-H522 lung = test system: NCI-H522 lung
MALME-3M melanoma = test system: MALME-3M melanoma
786-0 renal = test system: 786-0 renal
PC-3 prostate = test system: PC-3 prostate
SNB-19 CNS = test system: SNB-19 CNS
OVCAR-5 ovarian = test system: OVCAR-5 ovarian
RXF 393 renal = test system: RXF 393 renal
SR leukemia = test system: SR leukemia
KM12 colon = test system: KM12 colon
OVCAR-3 ovarian = test system: OVCAR-3 ovarian
SK-MEL-5 melanoma = test system: SK-MEL-5 melanoma
HOP-62 NSCLC = test system: HOP-62 NSCLC
MCF7 breast = test system: MCF7 breast
U251 CNS = test system: U251 CNS
NCI-H226 lung = test system: NCI-H226 lung
UACC-257 melanoma = test system: UACC-257 melanoma
BT-549 breast = test system: BT-549 breast
SF-268 CNS = test system: SF-268 CNS
NCI/ADR-RES ovarian = test system: NCI/ADR-RES ovarian
SK-MEL-28 melanoma = test system: SK-MEL-28 melanoma
EKVX NSCLC = test system: EKVX NSCLC
NCI-H23 lung = test system: NCI-H23 lung
NCI-H460 lung = test system: NCI-H460 lung
SN12C renal = test system: SN12C renal
SK-MEL-2 melanoma = test system: SK-MEL-2 melanoma
HCT-116 colon = test system: HCT-116 colon
CAKI-1 renal = test system: CAKI-1 renal
UACC-62 melanoma = test system: UACC-62 melanoma
OVCAR-4 ovarian = test system: OVCAR-4 ovarian
SF-539 CNS = test system: SF-539 CNS
TK-10 renal = test system: TK-10 renal
MOLT-4 leukemia = test system: MOLT-4 leukemia
HT29 colon = test system: HT29 colon
HCT-15 colon = test system: HCT-15 colon
CCRF-CEM leukemia = test system: CCRF-CEM leukemia
MDA-MB-435 = test system: MDA-MB-435
K-562 leukemia = test system: K-562 leukemia
LOX IMVI melanoma = test system: LOX IMVI melanoma
A498 renal = test system: A498 renal
SNB-75 CNS = test system: SNB-75 CNS
IGROV1 ovarian = test system: IGROV1 ovarian
HL-60(TB) leukemia = test system: HL-60(TB) leukemia
HCC-2998 colon = test system: HCC-2998 colon

## O=C(N1CCOCC1)C1(c2ccccc2)CCNCC1
DU-145 prostate
  TGI: > 100 µM
SF-295 CNS
  TGI: > 100 µM
SW-620 colon
  TGI: > 100 µM
OVCAR-8 ovarian
  TGI: > 100 µM
SK-OV-3 ovarian
  TGI: > 100 µM
ACHN renal
  TGI: > 100 µM
HS 578T breast
  TGI: > 100 µM
M14 melanoma
  TGI: > 100 µM
T-47D breast
  TGI: > 100 µM
MDA-N
  TGI: > 100 µM
UO-31 renal
  TGI: > 100 µM
MDA-MB-231 breast
  TGI: > 100 µM
A549 NSCLC
  TGI: > 100 µM
RPMI-8226 leukemia
  TGI: > 100 µM
COLO 205 colon
  TGI: > 100 µM
HOP-92 NSCLC
  TGI: > 100 µM
NCI-H522 lung
  TGI: > 100 µM
MALME-3M melanoma
  TGI: > 100 µM
786-0 renal
  TGI: > 100 µM
PC-3 prostate
  TGI: > 100 µM
SNB-19 CNS
  TGI: > 100 µM
OVCAR-5 ovarian
  TGI: > 100 µM
RXF 393 renal
  TGI: > 100 µM
SR leukemia
  TGI: > 100 µM
KM12 colon
  TGI: > 100 µM
OVCAR-3 ovarian
  TGI: > 100 µM
SK-MEL-5 melanoma
  TGI: > 100 µM
HOP-62 NSCLC
  TGI: > 100 µM
MCF7 breast
  TGI: > 100 µM
U251 CNS
  TGI: > 100 µM
NCI-H226 lung
  TGI: > 100 µM
UACC-257 melanoma
  TGI: > 100 µM
BT-549 breast
  TGI: > 100 µM
SF-268 CNS
  TGI: > 100 µM
NCI/ADR-RES ovarian
  TGI: > 100 µM
SK-MEL-28 melanoma
  TGI: > 100 µM
EKVX NSCLC
  TGI: > 100 µM
NCI-H23 lung
  TGI: > 100 µM
NCI-H460 lung
  TGI: > 100 µM
SN12C renal
  TGI: > 100 µM
SK-MEL-2 melanoma
  TGI: > 100 µM
HCT-116 colon
  TGI: > 100 µM
CAKI-1 renal
  TGI: > 100 µM
UACC-62 melanoma
  TGI: > 100 µM
OVCAR-4 ovarian
  TGI: > 100 µM
SF-539 CNS
  TGI: > 100 µM
TK-10 renal
  TGI: > 100 µM
MOLT-4 leukemia
  TGI: > 100 µM
HT29 colon
  TGI: > 100 µM
HCT-15 colon
  TGI: > 100 µM
CCRF-CEM leukemia
  TGI: 78.8 µM
MDA-MB-435
  TGI: > 100 µM
K-562 leukemia
  TGI: > 100 µM
LOX IMVI melanoma
  TGI: > 100 µM
A498 renal
  TGI: > 100 µM
SNB-75 CNS
  TGI: > 100 µM
IGROV1 ovarian
  TGI: > 100 µM

## O=C(O)CN(CC(=O)O)Cc1cc2c(cc1O)Oc1cc(O)c(CN(CC(=O)O)CC(=O)O)cc1C21OC(=O)c2ccccc21
DU-145 prostate
  TGI: > 100 µM
SF-295 CNS
  TGI: > 100 µM
SW-620 colon
  TGI: > 100 µM
OVCAR-8 ovarian
  TGI: > 100 µM
SK-OV-3 ovarian
  TGI: > 100 µM
ACHN renal
  TGI: > 100 µM
HS 578T breast
  TGI: > 100 µM
M14 melanoma
  TGI: > 100 µM
T-47D breast
  TGI: > 100 µM
MDA-N
  TGI: > 100 µM
UO-31 renal
  TGI: > 100 µM
MDA-MB-231 breast
  TGI: > 100 µM
A549 NSCLC
  TGI: > 100 µM
RPMI-8226 leukemia
  TGI: > 100 µM
COLO 205 colon
  TGI: > 100 µM
HOP-92 NSCLC
  TGI: > 100 µM
NCI-H522 lung
  TGI: > 100 µM
786-0 renal
  TGI: > 100 µM
PC-3 prostate
  TGI: > 100 µM
SNB-19 CNS
  TGI: > 100 µM
OVCAR-5 ovarian
  TGI: > 100 µM
SR leukemia
  TGI: > 100 µM
KM12 colon
  TGI: > 100 µM
OVCAR-3 ovarian
  TGI: > 100 µM
SK-MEL-5 melanoma
  TGI: > 100 µM
HOP-62 NSCLC
  TGI: > 100 µM
MCF7 breast
  TGI: > 100 µM
U251 CNS
  TGI: > 100 µM
NCI-H226 lung
  TGI: > 100 µM
UACC-257 melanoma
  TGI: > 100 µM
BT-549 breast
  TGI: > 100 µM
SF-268 CNS
  TGI: > 100 µM
NCI/ADR-RES ovarian
  TGI: > 100 µM
SK-MEL-28 melanoma
  TGI: > 100 µM
EKVX NSCLC
  TGI: > 100 µM
NCI-H23 lung
  TGI: > 100 µM
SN12C renal
  TGI: > 100 µM
SK-MEL-2 melanoma
  TGI: > 100 µM
HCT-116 colon
  TGI: > 100 µM
CAKI-1 renal
  TGI: > 100 µM
UACC-62 melanoma
  TGI: > 100 µM
OVCAR-4 ovarian
  TGI: > 100 µM
SF-539 CNS
  TGI: > 100 µM
TK-10 renal
  TGI: > 100 µM
MOLT-4 leukemia
  TGI: > 100 µM
HT29 colon
  TGI: > 100 µM
HCT-15 colon
  TGI: > 100 µM
CCRF-CEM leukemia
  TGI: > 100 µM
MDA-MB-435
  TGI: > 100 µM
HL-60(TB) leukemia
  TGI: > 100 µM
K-562 leukemia
  TGI: > 100 µM
LOX IMVI melanoma
  TGI: > 100 µM
A498 renal
  TGI: > 100 µM
HCC-2998 colon
  TGI: > 100 µM
SNB-75 CNS
  TGI: > 100 µM
IGROV1 ovarian
  TGI: > 100 µM

## O=c1[nH]c(=O)n(C2CC(O)C(COP(=O)(O)OC3CC(n4cc(F)c(=O)[nH]c4=O)OC3COP(=O)(O)OC3CC(n4cc(F)c(=O)[nH]c4=O)OC3COP(=O)(O)OC3CC(n4cc(F)c(=O)[nH]c4=O)OC3COP(=O)(O)OC3CC(n4cc(F)c(=O)[nH]c4=O)OC3COP(=O)(O)OC3CC(n4cc(F)c(=O)[nH]c4=O)OC3COP(=O)(O)OC3CC(n4cc(F)c(=O)[nH]c4=O)OC3COP(=O)(O)OC3CC(n4cc(F)c(=O)[nH]c4=O)OC3COP(=O)(O)OC3CC(n4cc(F)c(=O)[nH]c4=O)OC3COP(=O)(O)OC3CC(n4cc(F)c(=O)[nH]c4=O)OC3CO)O2)cc1F (stereo unspecified)
DU-145 prostate
  TGI: > 50 µM
SF-295 CNS
  TGI: > 10 µM
SW-620 colon
  TGI: > 50 µM
OVCAR-8 ovarian
  TGI: > 50 µM
SK-OV-3 ovarian
  TGI: > 50 µM
ACHN renal
  TGI: > 50 µM
HS 578T breast
  TGI: > 50 µM
M14 melanoma
  TGI: > 50 µM
T-47D breast
  TGI: > 50 µM
MDA-N
  TGI: > 50 µM
UO-31 renal
  TGI: > 50 µM
MDA-MB-231 breast
  TGI: > 50 µM
A549 NSCLC
  TGI: > 50 µM
RPMI-8226 leukemia
  TGI: > 50 µM
COLO 205 colon
  TGI: > 50 µM
HOP-92 NSCLC
  TGI: > 50 µM
786-0 renal
  TGI: > 50 µM
PC-3 prostate
  TGI: > 50 µM
SNB-19 CNS
  TGI: > 50 µM
OVCAR-5 ovarian
  TGI: > 50 µM
RXF 393 renal
  TGI: > 50 µM
SR leukemia
  TGI: > 50 µM
KM12 colon
  TGI: > 50 µM
SK-MEL-5 melanoma
  TGI: > 50 µM
HOP-62 NSCLC
  TGI: > 50 µM
MCF7 breast
  TGI: > 50 µM
U251 CNS
  TGI: > 50 µM
NCI-H226 lung
  TGI: > 50 µM
UACC-257 melanoma
  TGI: > 50 µM
BT-549 breast
  TGI: > 50 µM
SF-268 CNS
  TGI: > 50 µM
NCI/ADR-RES ovarian
  TGI: > 50 µM
SK-MEL-28 melanoma
  TGI: > 50 µM
EKVX NSCLC
  TGI: > 50 µM
NCI-H23 lung
  TGI: > 50 µM
SN12C renal
  TGI: > 50 µM
SK-MEL-2 melanoma
  TGI: > 50 µM
HCT-116 colon
  TGI: > 50 µM
CAKI-1 renal
  TGI: > 50 µM
OVCAR-4 ovarian
  TGI: > 50 µM
SF-539 CNS
  TGI: < 0.005 µM
TK-10 renal
  TGI: > 50 µM
MOLT-4 leukemia
  TGI: > 50 µM
HT29 colon
  TGI: > 50 µM
HCT-15 colon
  TGI: > 50 µM
MDA-MB-435
  TGI: > 50 µM
HL-60(TB) leukemia
  TGI: > 50 µM
K-562 leukemia
  TGI: > 50 µM
LOX IMVI melanoma
  TGI: > 50 µM
A498 renal
  TGI: 1.12 µM
HCC-2998 colon
  TGI: > 50 µM
SNB-75 CNS
  TGI: > 50 µM
IGROV1 ovarian
  TGI: > 50 µM
